Assay results published in ChEMBL document CHEMBL1201862, “PubChem BioAssay data set” (2004).
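Values below derive from 48-hour exposures of cells grown in 96-well plates, with endpoints linearly interpolated between the two concentrations bracketing the appropriate inhibition level. Here, GI50 denotes the concentration required for 50% inhibition of growth.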 Active and inactive are the calls of the source. Rule as the data show it: active = GI50 up to about 1.1 µM and inactive = higher.

Legend:
Assay in all cases: NCI anticancer screen, dose series, 48 h
EKVX = tested on: EKVX
HT-29 = tested on: HT-29
DU-145 = tested on: DU-145
MDA-MB-231 = tested on: MDA-MB-231
RXF 393 = tested on: RXF 393
SNB-19 = tested on: SNB-19
OVCAR-8 = tested on: OVCAR-8
Hs-578T = tested on: Hs-578T
OVCAR-4 = tested on: OVCAR-4
MCF7 = tested on: MCF7
COLO 205 = tested on: COLO 205
NCI-H23 = tested on: NCI-H23
MDA-MB-435 = tested on: MDA-MB-435
NCI-H522 = tested on: NCI-H522
U-251 = tested on: U-251
KM12 = tested on: KM12
MDA-N = tested on: MDA-N
UO-31 = tested on: UO-31
UACC-62 = tested on: UACC-62
BT-549 = tested on: BT-549
SNB-75 = tested on: SNB-75
HCT-15 = tested on: HCT-15
UACC-257 = tested on: UACC-257
HCT-116 = tested on: HCT-116
RPMI-8226 = tested on: RPMI-8226
SF-268 = tested on: SF-268
OVCAR-5 = tested on: OVCAR-5
SK-OV-3 = tested on: SK-OV-3
A549 = tested on: A549
ACHN = tested on: ACHN
OVCAR-3 = tested on: OVCAR-3
786-0 = tested on: 786-0
SK-MEL-5 = tested on: SK-MEL-5
NCI/ADR-RES = tested on: NCI/ADR-RES
CAKI-1 = tested on: CAKI-1
TK-10 = tested on: TK-10
HCC 2998 = tested on: HCC 2998
HOP-62 = tested on: HOP-62
SR = tested on: SR
PC-3 = tested on: PC-3
IGROV-1 = tested on: IGROV-1
LOX IMVI = tested on: LOX IMVI
MOLT-4 = tested on: MOLT-4
SK-MEL-28 = tested on: SK-MEL-28
SN12C = tested on: SN12C
NCI-H460 = tested on: NCI-H460
SK-MEL-2 = tested on: SK-MEL-2
SW-620 = tested on: SW-620
HOP-92 = tested on: HOP-92
CCRF-CEM = tested on: CCRF-CEM
M14 = tested on: M14
SF-295 = tested on: SF-295
K562 = tested on: K562
SF-539 = tested on: SF-539
Malme-3M = tested on: Malme-3M
HL-60 = tested on: HL-60
NCI-H226 = tested on: NCI-H226
A498 = tested on: A498

Structure (SMILES): CC(C)(C)n1c(=O)n2n(c1=O)Cc1cccc3cccc(c13)C2
- GI50 (EKVX): 15 µM (inactive)
- GI50 (HT-29): 16.7 µM (inactive)
- GI50 (DU-145): 35.5 µM (inactive)
- GI50 (MDA-MB-231): 32.6 µM (inactive)
- GI50 (RXF 393): 13.9 µM (inactive)
- GI50 (SNB-19): 25.6 µM (inactive)
- GI50 (OVCAR-8): 17.8 µM (inactive)
- GI50 (Hs-578T): 12.2 µM (inactive)
- GI50 (OVCAR-4): 19.6 µM (inactive)
- GI50 (MCF7): 22.8 µM (inactive)
- GI50 (COLO 205): 29.5 µM (inactive)
- GI50 (NCI-H23): 25.6 µM (inactive)
- GI50 (MDA-MB-435): 23.7 µM (inactive)
- GI50 (NCI-H522): 2.99 µM (inactive)
- GI50 (U-251): 15.3 µM (inactive)
- GI50 (KM12): 14.7 µM (inactive)
- GI50 (MDA-N): 22.1 µM (inactive)
- GI50 (UO-31): 22.1 µM (inactive)
- GI50 (UACC-62): 24 µM (inactive)
- GI50 (BT-549): 31.8 µM (inactive)
- GI50 (SNB-75): 0.834 µM (active)
- GI50 (HCT-15): 18.5 µM
- GI50 (UACC-257): 22.6 µM (inactive)
- GI50 (HCT-116): 15.1 µM (inactive)
- GI50 (RPMI-8226): 14 µM (inactive)
- GI50 (SF-268): 14.5 µM (inactive)
- GI50 (OVCAR-5): 17 µM (inactive)
- GI50 (SK-OV-3): 27.1 µM (inactive)
- GI50 (A549): 26.7 µM (inactive)
- GI50 (ACHN): 20.6 µM (inactive)
- GI50 (OVCAR-3): 15.4 µM (inactive)
- GI50 (786-0): 19.5 µM (inactive)
- GI50 (SK-MEL-5): 19.5 µM (inactive)
- GI50 (NCI/ADR-RES): 14.4 µM (inactive)
- GI50 (CAKI-1): 15.1 µM (inactive)
- GI50 (TK-10): 29.1 µM (inactive)
- GI50 (HCC 2998): 21.9 µM (inactive)
- GI50 (HOP-62): 14 µM (inactive)
- GI50 (SR): 6.7 µM (inactive)
- GI50 (PC-3): 13 µM (inactive)
- GI50 (IGROV-1): 11.3 µM (inactive)
- GI50 (LOX IMVI): 23.8 µM (inactive)
- GI50 (MOLT-4): 14.8 µM (inactive)
- GI50 (SK-MEL-28): 21.7 µM (inactive)
- GI50 (SN12C): 19.3 µM (inactive)
- GI50 (NCI-H460): 10.7 µM (inactive)
- GI50 (SK-MEL-2): 17.9 µM (inactive)
- GI50 (SW-620): 17 µM (inactive)
- GI50 (HOP-92): 28.1 µM (inactive)
- GI50 (CCRF-CEM): 4.31 µM (inactive)
- GI50 (M14): 18.4 µM (inactive)
- GI50 (SF-295): 17 µM (inactive)
- GI50 (K562): 10.3 µM (inactive)
- GI50 (SF-539): 17.2 µM (inactive)
- GI50 (Malme-3M): 14.2 µM (inactive)

Structure (SMILES): COc1ccc(/C=C/c2sc3ccccc3[n+]2CCCCI)cc1OC
- GI50 (EKVX): > 10 µM (inactive)
- GI50 (HT-29): > 10 µM (inactive)
- GI50 (DU-145): > 10 µM (inactive)
- GI50 (MDA-MB-231): > 10 µM (inactive)
- GI50 (RXF 393): > 10 µM (inactive)
- GI50 (SNB-19): > 10 µM (inactive)
- GI50 (OVCAR-8): 4.61 µM (inactive)
- GI50 (Hs-578T): > 10 µM (inactive)
- GI50 (HL-60): 4.46 µM (inactive)
- GI50 (OVCAR-4): > 10 µM (inactive)
- GI50 (MCF7): > 10 µM (inactive)
- GI50 (NCI-H23): > 10 µM (inactive)
- GI50 (MDA-MB-435): 4.57 µM (inactive)
- GI50 (NCI-H522): 8.87 µM (inactive)
- GI50 (U-251): 6.67 µM (inactive)
- GI50 (KM12): 6.25 µM (inactive)
- GI50 (MDA-N): 5.97 µM (inactive)
- GI50 (NCI-H226): > 10 µM (inactive)
- GI50 (UO-31): > 10 µM (inactive)
- GI50 (UACC-62): 6.32 µM (inactive)
- GI50 (BT-549): > 10 µM (inactive)
- GI50 (SNB-75): 5.64 µM (inactive)
- GI50 (HCT-15): > 10 µM
- GI50 (UACC-257): 5.33 µM (inactive)
- GI50 (HCT-116): 4.36 µM (inactive)
- GI50 (RPMI-8226): 7.33 µM (inactive)
- GI50 (SF-268): > 10 µM (inactive)
- GI50 (OVCAR-5): > 10 µM (inactive)
- GI50 (SK-OV-3): > 10 µM (inactive)
- GI50 (A549): > 10 µM (inactive)
- GI50 (ACHN): > 10 µM (inactive)
- GI50 (OVCAR-3): 5.47 µM (inactive)
- GI50 (786-0): > 10 µM (inactive)
- GI50 (SK-MEL-5): 5.55 µM (inactive)
- GI50 (NCI/ADR-RES): > 10 µM (inactive)
- GI50 (CAKI-1): > 10 µM (inactive)
- GI50 (TK-10): > 10 µM (inactive)
- GI50 (HCC 2998): > 10 µM (inactive)
- GI50 (HOP-62): > 10 µM (inactive)
- GI50 (PC-3): 3.33 µM (inactive)
- GI50 (IGROV-1): > 10 µM (inactive)
- GI50 (LOX IMVI): > 10 µM (inactive)
- GI50 (MOLT-4): 5.87 µM (inactive)
- GI50 (SK-MEL-28): > 10 µM (inactive)
- GI50 (SN12C): > 10 µM (inactive)
- GI50 (NCI-H460): > 10 µM (inactive)
- GI50 (SK-MEL-2): 3.61 µM (inactive)
- GI50 (SW-620): 7.01 µM (inactive)
- GI50 (HOP-92): 9.53 µM (inactive)
- GI50 (CCRF-CEM): 3.49 µM (inactive)
- GI50 (M14): > 10 µM (inactive)
- GI50 (A498): > 10 µM (inactive)
- GI50 (SF-295): > 10 µM (inactive)
- GI50 (K562): 3.25 µM (inactive)
- GI50 (SF-539): > 10 µM (inactive)
- GI50 (Malme-3M): 3.01 µM (inactive)
